# Experimental data reported in patent US20250302817A1, “METHODS FOR TREATING PTEN-MUTANT TUMORS” (Icahn School of Medicine at Mount Sinai, priority 2016, published 2025).
# Key:
# [1] = tested on: Pten^−/− and WT MEFs; test: Drug response assay (GI50 dose titration) in Pten WT and KO MEFs; type: cell-based, mouse; settings: for differential sensitivity of Pten^−/− versus WT MEFs: GI50 dose titration (FIG. 8, E-F)
# Procedure: (§1) FIG. 2F is a graph comparing various human breast cancer cell line growth rates. FIG. 2G is a series of immunoblots of pAKT in nuclear fractions of Pten^−/− and Pik3ca mutant MEFs. […] Data shown as mean+SD.
# (§2) 1500 cells per well (mouse cells) or 3000 cells per well (human cells) were plated in 96-well plates (Corning 720089). Growth rates were determined using the phase-confluency readings on an IncuCyte ZOOM (Essen Biosciences) on live cells over time.
# (§3) Cells were plated in 96-well plates at a density of 1500 or 3000 cells per well. […] Sensitivity was determined by a dose-response titration for each cell line, with an equivalent amount of DMSO in each well. For cell death assays, DRAQ7™ (Cell Signaling 7406S) was added to the media at a 1:200 dilution and red fluorescence was measured in addition to phase in live-cell imaging to measure accumulation of dead cells. An IncuCyte ZOOM was used.
# [2] = tested on: Pten^−/− and WT MEFs; test: Growth of Pten WT and KO MEFs with glutaminase inhibitor (proliferation assay); type: cell-based, mouse; settings: 12.5 nM CB-839 (FIG. 1F)
# Procedure: FIG. 1A is a graph comparing the growth of Pten wild-type (WT) and KO MEFs (one-way ANOVA, *p<0.0001, n=3). FIG. 1B is a series of representative confocal microscopy photographs showing MEFs labeled with EdU. FIG. 1C is a graph showing a quantitative depiction of the photographs in FIG. 1B (Student's t-test, *p<0.05, n=6). FIG. 1D is a graph showing a quantitative depiction of the mean fluorescence intensity of MEFs labeled with EdU; cells were analyzed by flow cytometry (Student's t-test, *p<0.01, n=3). FIG. 1E is a series of representative photographs showing Pten WT and KO MEFs in media containing full glutamine ([…]) or no added glutamine (one-way ANOVA, *p<0.0001, n=3). […] FIG. 1G is a graph comparing the relative metabolite concentrations of DNA nucleotide precursors in Pten WT and KO MEFs (dGMP was unable to be measured so dGTP was used instead) (Student's t-test, *p<0.05, n=3). […] Data were also analyzed with IMPaLA: ^13C glutamine-derived pyrimidine metabolism enrichment in PTEN^−/− MEFs q-value=3.92×10^−09. […]
# 1500 cells per well (mouse cells) or 3000 cells per well (human cells) were plated in 96-well plates (Corning 720089). Growth rates were determined using the phase-confluency readings on an IncuCyte ZOOM (Essen Biosciences) on live cells over time. […]
# [3] = tested on: Pten^−/− MEFs, PTEN-mutant human breast cancer cell lines, and Pten^−/− mouse breast lines; test: Cell death accumulation by live-cell imaging with DRAQ7; type: cell-based; settings: 100 uM leflunomide and DRAQ7, 6 h intervals; PTEN-deficient versus WT cells
# From the text: as §1
# (§4) FIG. 7C, FIG. 7D, and FIG. 7E are series of bar graphs depicting the GI50s of cells treated with dose titrations of DHODH inhibitors as indicated (Student's t-test, *p-values as reported on the figures, n=3). […] FIG. 7G depicts the confluence of MCCL-278 and MCCL-357 breast cells. FIG. 7H depicts the confluence of Myc-CaP and CaP8 prostate cells. FIG. 7I is an immunoblot of pAKT in MCCL-278 and MCCL-357 breast cells. FIG. 7J is an immunoblot of pAKT in nuclear fractions of MCCL-278 and MCCL-357 breast cells. Data shown as means±SD.
# as §3
# [4] = tested on: gamma-H2AX; test: Gamma-H2AX measurement of DNA damage by flow cytometry; type: cell-based; settings: 100 μM leflunomide 48 h or A771726
# Procedure: (§5) FIG. 4A is a graph showing positively-stained cells labeled with a gamma-H2AX antibody; cells were analyzed by flow cytometry (Student's t-test, *p<0.05, n=3). […] The mean fluorescence intensity (MFI) was determined using flow cytometry (Student's t-test, *p<0.01, n=3). FIG. 4C is a series of representative photographs showing MEFs treated with 150 μM A771726 for 24 h and labeled with EdU and gamma-H2AX. Left: representative confocal microscopy images. Right: quantified EdU and gamma-H2AX colocalized foci (Student's t-test, *p<0.05, n=3). […] Left: representative confocal microscopy images. Right: quantification of the number of foci per cell (Student's t-test, p>0.05, n=6). FIG. 4E is a graph showing the percentage of cells treated with 150 μM A771726 for times indicated and labeled with antibodies to RPA and gamma-H2AX positively staining for RPA alone or both RPA and gamma-H2AX; cells were analyzed by flow cytometry (Student's t-test, *p<0.05, n=4). […] FIGS. 4G and 4H are graphs quantifying the number of chromosomal breaks and multiradial formations per haploid genome (Student's t-test, *p-values on figure, cells scored/replicate>100). […]
# (§6) FIG. 10D is a bar graph showing a quantitative depiction of the percent cell area with EdU-staining from images in FIG. 4D, used to normalize foci to cell size (Student's t-test, p>0.05, not significant, n=6). […]
# [5] = tested on: Pten^−/− MEFs; test: EdU detection of replication forks in MEFs; type: cell-based, mouse; settings: after 24 h of treatment with leflunomide
# Procedure: as §5, §6
# [6] = tested on: human breast, mouse breast, or mouse prostate tumor cell lines; test: Proliferation rates of tumor cell lines versus leflunomide sensitivity; type: cell-based
# From the text: as §1, §4, §2
# [7] = in vivo; cited from earlier work
# [8] = tested on: SUM149 and MDA-MB 468 xenografts; test: PTEN-mutant triple-negative breast cancer xenografts; type: in vivo, nu/nu mice
# Procedure: FIG. 3B is a graph showing the tumor volume of PTEN-mutant triple-negative breast cancer cell line SUM149 xenografts. […] FIG. 3C is a graph showing the relative luminescence of PTEN-mutant triple-negative breast cancer cell line MDA-MB 468 xenografts expressing luciferase. […] Radiance was measured on days 0, 7, 14, and 21, quantified as photons/second/cm^2/steradian. FIG. 3D: luminescence of treated and control mice after 2 weeks of treatment. Data shown as mean+SD for FIG. 3A and +SEM for FIGS. 3B and 3C.
# FIG. 9A is an immunoblot of PTEN in the four patient-derived glioblastomas in FIG. 3A. […] Tumor size was measured by assessing luminescence, quantified by photons/second/cm^2/steradian (n=2). […] Tumor volume was measured by calipers. Growth rate of the tumors was determined by calculating the slope of the tumor growth (Student's t-test, *p<0.01, n=8). Data shown as means±SEM.
# 6-week old nu/nu mice (Jackson Laboratory, 20-25 g weight each) were engrafted orthotopically with either 5 million SUM149, 5 million MDAMB 468-luciferase, 1 million MCCL-357, or 0.75 million MCCL-278 cells. […] Luminescence was measured on days 0, 7, 14, and 21, quantified as photons/second/cm^2/steradian, and normalized to baseline.
# [9] = tested on: MCCL-357 (Myc, Pten^−/−), CaP8 (PTEN^−/−), MCCL-278 (Myc, Pik3ca H1047R) and Myc-CaP (Myc); test: Drug response assay (GI50) in mouse cancer lines; type: cell-based; settings: Myc-CaP prostate cells (FIG. 7D)
# From the text: as §1, §4, §3
# [10] = tested on: PTEN-deficient cells; test: Orotate rescue of growth inhibition by leflunomide; type: cell-based; settings: increasing concentrations of orotate with 25 or 50 μM leflunomide; confluence after 5 days
# From the text: as §1
# Note that here as well as in FIG. 2, H-I, a large amount of DMSO was used in each condition to match the amount of orotate needed, narrowing the growth differential normally observed between leflunomide-treated and untreated cells in the PTEN mutant setting. FIG. 8B is a bar graph and immunoblot depicting cells transfected with siRNA against DHODH. The bar graph depicts cell viability measured using annexin V and 7AAD. 0.5 μg/mL actinomycin D was a positive control for cell death. (Students t-test, *p<0.05, n=3). […] FIG. 8C is an immunoblot of DHODH in Pten KO and WT cells. FIG. 8D is an immunoblot of pAKT in Pten KO and WT cells with or without treatment with 50 μM A771726. FIG. 8E and FIG. 8F are bar graphs depicting the GI50s of cells treated with dose titrations of 5-fluorouracil or mercaptopurine, respectively (Student's t-test, p>0.05, n=3). FIG. 8G depicts the confluence of prostate cells grown in media containing full glutamine (4 mM) or no added glutamine. Data shown as means±SD.
# Orotate (Sigma O2750) was dissolved in DMSO.
smiles,measurement,setting,value
"O=c1[nH]cc(F)c(=O)[nH]1 [5-flurouracil, 5-fluorouracil]",differential sensitivity of Pten^−/− versus WT MEFs,[1],did not show a differential sensitivity
O=C(Cc1cccc(OC(F)(F)F)c1)Nc1ccc(CCCCc2nnc(NC(=O)Cc3ccccn3)s2)nn1 [CB-839],growth difference between Pten^−/− and WT MEFs,[2],sufficient to collapse the growth difference
Cc1c(-c2ccc(-c3ccccc3F)cc2)nc2ccc(F)cc2c1C(=O)O [brequinar],sensitivity of Pten^−/− MEFs compared with WT MEFs,[1]; GI50 dose titration (FIG. 2A),more sensitive
Cc1oncc1C(=O)Nc1ccc(C(F)(F)F)cc1 [leflunomide],accumulation of dead cells over time,[3],increased accumulation of dead cells over time
same,DNA damage (gamma-H2AX) in PTEN-deficient versus WT cells,[4],augmented DNA damage to a significantly greater degree in PTEN-deficient cells
same,number of replication forks in Pten^−/− MEFs after treatment,[5],remained intact
same,association of sensitivity with proliferation rates of tumor cell lines,[6],not associated with the proliferation rates
same,half-life,[7],~2 weeks
same,tumor growth upon treatment,"[8]; 100 mg/kg oral leflunomide, two PTEN-mutant triple-negative breast cancer xenografts",slowed or regressed
same,response of very large tumors (4×10^7 photons),"[8]; MDA-MB 468 xenografts grown seven weeks untreated, then 100 mg/kg leflunomide for 1 week",regressed after only 1 week of treatment
same,sensitivity of Myc-CaP cells,[9],resistant
S=c1nc[nH]c2nc[nH]c12 [mercaptopurine],differential sensitivity of Pten^−/− versus WT MEFs,[1],did not show a differential sensitivity
O=C(O)c1cc(=O)[nH]c(=O)[nH]1 [orotate],rescue of growth inhibition by leflunomide,[10],rescued growth inhibition by leflunomide in a dose-dependent manner
